Assay in all cases: cryo-EM structure of phycobilisome, […] Å
What all share (assay type): binding

The target in one test is T1, ApcD (Synechococcus elongatus, UniProt Q31RP7).
T1 construct: gene Synpcc7942_0240; native subunit in phycobilisome core (trimer 4), glutaraldehyde cross-linked
T1 sequence (Q31RP7 1-163): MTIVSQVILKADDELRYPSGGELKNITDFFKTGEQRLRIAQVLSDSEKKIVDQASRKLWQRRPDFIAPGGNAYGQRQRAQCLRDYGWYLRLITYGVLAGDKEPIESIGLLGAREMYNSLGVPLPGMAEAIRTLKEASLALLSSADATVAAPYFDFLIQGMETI
The following applies: covalent; terminal emitter; pH 7.0.

For a further test, the target named is T2, ApcE (LCM), αApcE domain (Synechococcus elongatus, UniProt Q31RF9).
T2 construct: gene Synpcc7942_0328; native ApcE with two REP domains in phycobilisome core (trimer 3), glutaraldehyde cross-linked; bilin in N-terminal αApcE domain
T2 sequence (Q31RF9 1-705): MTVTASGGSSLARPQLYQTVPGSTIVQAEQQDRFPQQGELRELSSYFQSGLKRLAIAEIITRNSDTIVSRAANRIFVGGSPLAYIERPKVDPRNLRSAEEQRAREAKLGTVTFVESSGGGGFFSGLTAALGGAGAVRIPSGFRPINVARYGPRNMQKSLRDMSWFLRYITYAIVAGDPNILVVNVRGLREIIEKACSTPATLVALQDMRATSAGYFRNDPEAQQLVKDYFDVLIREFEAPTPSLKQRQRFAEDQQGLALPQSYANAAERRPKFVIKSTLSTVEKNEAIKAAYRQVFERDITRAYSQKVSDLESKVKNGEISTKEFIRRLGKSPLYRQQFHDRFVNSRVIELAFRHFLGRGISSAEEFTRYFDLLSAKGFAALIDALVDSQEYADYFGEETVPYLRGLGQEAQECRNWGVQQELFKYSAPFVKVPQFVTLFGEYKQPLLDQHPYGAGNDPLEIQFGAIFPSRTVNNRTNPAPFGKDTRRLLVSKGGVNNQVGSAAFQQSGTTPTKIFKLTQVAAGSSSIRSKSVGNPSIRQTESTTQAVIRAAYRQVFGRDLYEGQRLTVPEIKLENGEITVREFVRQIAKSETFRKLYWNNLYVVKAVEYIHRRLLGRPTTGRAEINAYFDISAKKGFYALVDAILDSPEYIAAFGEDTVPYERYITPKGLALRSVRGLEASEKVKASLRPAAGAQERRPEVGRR
As to conditions: covalent, terminal emitter, pH 7.0.

The target in a further test is T3, ApcF (Synechococcus elongatus, UniProt O50209).
T3 construct: native subunit in phycobilisome core, glutaraldehyde cross-linked
T3 sequence (O50209 1-169): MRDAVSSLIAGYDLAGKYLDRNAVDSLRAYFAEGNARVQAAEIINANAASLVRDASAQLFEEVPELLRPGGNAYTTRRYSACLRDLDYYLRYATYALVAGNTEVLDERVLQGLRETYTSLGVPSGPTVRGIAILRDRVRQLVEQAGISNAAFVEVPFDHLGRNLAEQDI
The following applies: covalent; pH 7.0.

Structures are written as SMILES.

In the case of `C/C=C1/C(=C/C2=NC(=C\c3[nH]c(/C=C4\NC(=O)C(CC)=C4C)c(C)c3CCC(=O)O)/C(CCC(=O)O)=C2C)NC(=O)[C@@H]1C` [phycocyanobilin], the “cryo-EM structure of phycobilisome, 2.98 Å” value on ApcD was “terminal emitters (ApcD and the α^ApcE domain) are deduced based on the shortest distances”; on ApcE (LCM), αApcE domain, “terminal emitters (ApcD and the α^ApcE domain) are deduced based on the shortest distances”; at ApcF it was “Bilins in rods and core are painted the same colors as the corresponding proteins”.

(Values after paper doi:10.1101/2025.04.28.650843v1, “The structure of phycobilisome with a bicylindrical core from the cyanobacterium Synechococcus elongatus PCC 7942” (biorxiv, 2025).)
